The target in the assay is T1, hGLUT1 (Homo sapiens, UniProt P11166).
T1 construct: gene SLC2A1; untagged, expressed in Xenopus laevis oocytes from cRNA
T1 sequence (P11166 1-492): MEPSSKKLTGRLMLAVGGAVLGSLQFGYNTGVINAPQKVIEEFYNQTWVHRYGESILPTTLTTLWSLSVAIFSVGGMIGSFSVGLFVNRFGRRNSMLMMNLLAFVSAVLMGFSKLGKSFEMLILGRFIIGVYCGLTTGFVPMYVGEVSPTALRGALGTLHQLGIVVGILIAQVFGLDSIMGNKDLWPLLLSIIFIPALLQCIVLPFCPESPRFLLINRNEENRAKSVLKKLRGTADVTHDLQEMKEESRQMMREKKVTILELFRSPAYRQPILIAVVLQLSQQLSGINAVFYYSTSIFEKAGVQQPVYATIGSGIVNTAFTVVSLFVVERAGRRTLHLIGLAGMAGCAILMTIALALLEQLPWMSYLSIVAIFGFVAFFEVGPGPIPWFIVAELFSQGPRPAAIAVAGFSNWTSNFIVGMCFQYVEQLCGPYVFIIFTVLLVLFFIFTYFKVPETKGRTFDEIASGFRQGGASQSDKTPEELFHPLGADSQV
The assay can be described thus: […]glucose uptake in Xenopus oocytes. In kind it is cell-based. To be noted: incomplete ND96 buffer, 60 min uptake; labelled compound.

Take `OC[C@H]1OC(O)[C@H](O)[C@@H](O)[C@@H]1O` (stereo partly drawn) [D-glucose]: the “[14C]glucose uptake in Xenopus oocytes” value is listed as “These proteins transport glucose at levels that are comparable with GLUT1 expressed in the same system”.

For the origin of these results see PMC3898116, “FGT-1 is the major glucose transporter in C. elegans and is central to aging pathways” (Biochemical Journal, 2013).
